Molecular target: α-glucosidase
Experiment: pNPG colorimetric enzyme kinetics (Lineweaver–Burk; IC50 […]), supported by fluorescence quenching and circular dichroism
Assay type: biochemical, Saccharomyces cerevisiae

## COc1c(O)cc2oc3cc(O)c(CC=C(C)C)c(O)c3c(=O)c2c1CC=C(C)C [α-mangostin, 1,3,6-trihydroxy-7-methoxy-2,8-bis(3-methylbut-2-en-1-yl)-9H-xanthen-9-one]
  Ki: 30.3 µM

From paper PMC8777799, “Anti-α-Glucosidase and Antiglycation Activities of α-Mangostin and New Xanthenone Derivatives: Enzymatic Kinetics and Mechanistic Insights through In Vitro Studies” (Molecules, 2022)
